PubChem BioAssay (NCI)
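Compound exposure: 48 hours, 5 concentrations, 96-well plates. Abbreviation: GI50, concentration required for 50% inhibition of growth. The concentration for full growth arrest is given as TGI.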

Assays:
Assay in all cases: NCI-60 cell line screen, 48 h
SF-295 CNS = system: SF-295 CNS
HCT-15 colon = system: HCT-15 colon
NCI-H460 lung = system: NCI-H460 lung
TK-10 renal = system: TK-10 renal
KM12 colon = system: KM12 colon
786-0 renal = system: 786-0 renal
RXF 393 renal = system: RXF 393 renal
RPMI-8226 leukemia = system: RPMI-8226 leukemia
NCI-H23 lung = system: NCI-H23 lung
COLO 205 colon = system: COLO 205 colon
SK-MEL-2 melanoma = system: SK-MEL-2 melanoma
MCF7 breast = system: MCF7 breast
HOP-62 NSCLC = system: HOP-62 NSCLC
HL-60(TB) leukemia = system: HL-60(TB) leukemia
UACC-257 melanoma = system: UACC-257 melanoma
OVCAR-8 ovarian = system: OVCAR-8 ovarian
SF-539 CNS = system: SF-539 CNS
SNB-75 CNS = system: SNB-75 CNS
HS 578T breast = system: HS 578T breast
A549 NSCLC = system: A549 NSCLC
U251 CNS = system: U251 CNS
EKVX NSCLC = system: EKVX NSCLC
HOP-92 NSCLC = system: HOP-92 NSCLC
HCT-116 colon = system: HCT-116 colon
MOLT-4 leukemia = system: MOLT-4 leukemia
MALME-3M melanoma = system: MALME-3M melanoma
BT-549 breast = system: BT-549 breast
OVCAR-5 ovarian = system: OVCAR-5 ovarian
DU-145 prostate = system: DU-145 prostate
CAKI-1 renal = system: CAKI-1 renal
HCC-2998 colon = system: HCC-2998 colon
SW-620 colon = system: SW-620 colon
ACHN renal = system: ACHN renal
A498 renal = system: A498 renal
CCRF-CEM leukemia = system: CCRF-CEM leukemia
M14 melanoma = system: M14 melanoma
UACC-62 melanoma = system: UACC-62 melanoma
SK-OV-3 ovarian = system: SK-OV-3 ovarian
SF-268 CNS = system: SF-268 CNS
PC-3 prostate = system: PC-3 prostate
SK-MEL-28 melanoma = system: SK-MEL-28 melanoma
NCI-H226 lung = system: NCI-H226 lung
NCI-H522 lung = system: NCI-H522 lung
OVCAR-4 ovarian = system: OVCAR-4 ovarian
SK-MEL-5 melanoma = system: SK-MEL-5 melanoma
K-562 leukemia = system: K-562 leukemia
HT29 colon = system: HT29 colon
MDA-MB-435 = system: MDA-MB-435
IGROV1 ovarian = system: IGROV1 ovarian
SN12C renal = system: SN12C renal
SR leukemia = system: SR leukemia
SNB-19 CNS = system: SNB-19 CNS

O=C(Nc1ccc(F)c(F)c1)c1cc(-c2ccc(F)cc2F)ccc1O
GI50 (SF-295 CNS): 1200 nM | TGI (SF-295 CNS): 3580 nM | GI50 (HCT-15 colon): 1430 nM | TGI (HCT-15 colon): 6230 nM | GI50 (NCI-H460 lung): 1460 nM | TGI (NCI-H460 lung): > 50000 nM | GI50 (TK-10 renal): 1700 nM | TGI (TK-10 renal): > 50000 nM | GI50 (KM12 colon): 1670 nM | TGI (KM12 colon): 6650 nM | GI50 (786-0 renal): 1120 nM | TGI (786-0 renal): 2900 nM | GI50 (RXF 393 renal): 1250 nM | TGI (RXF 393 renal): 3870 nM | GI50 (RPMI-8226 leukemia): 768 nM | TGI (RPMI-8226 leukemia): 2720 nM | GI50 (NCI-H23 lung): 1070 nM | TGI (NCI-H23 lung): 3230 nM | GI50 (COLO 205 colon): 10600 nM | TGI (COLO 205 colon): 30500 nM | GI50 (SK-MEL-2 melanoma): 979 nM | TGI (SK-MEL-2 melanoma): 2860 nM | GI50 (MCF7 breast): 1180 nM | TGI (MCF7 breast): > 50000 nM | GI50 (HOP-62 NSCLC): 1590 nM | TGI (HOP-62 NSCLC): 6150 nM | GI50 (HL-60(TB) leukemia): 1110 nM | TGI (HL-60(TB) leukemia): 2810 nM | GI50 (UACC-257 melanoma): 781 nM | TGI (UACC-257 melanoma): 3600 nM | GI50 (OVCAR-8 ovarian): 1650 nM | TGI (OVCAR-8 ovarian): > 50000 nM | GI50 (SF-539 CNS): 1730 nM | TGI (SF-539 CNS): > 50000 nM | GI50 (SNB-75 CNS): 906 nM | TGI (SNB-75 CNS): 2720 nM | GI50 (HS 578T breast): 1610 nM | TGI (HS 578T breast): > 50000 nM | GI50 (A549 NSCLC): 1570 nM | TGI (A549 NSCLC): > 50000 nM | GI50 (U251 CNS): 1480 nM | TGI (U251 CNS): > 50000 nM | GI50 (EKVX NSCLC): 1380 nM | TGI (EKVX NSCLC): 15700 nM | GI50 (HOP-92 NSCLC): 684 nM | TGI (HOP-92 NSCLC): 2640 nM | GI50 (HCT-116 colon): 1120 nM | TGI (HCT-116 colon): 5940 nM | GI50 (MOLT-4 leukemia): 1540 nM | TGI (MOLT-4 leukemia): 5860 nM | GI50 (MALME-3M melanoma): 1010 nM | TGI (MALME-3M melanoma): 3070 nM | GI50 (BT-549 breast): 1060 nM | TGI (BT-549 breast): 7180 nM | GI50 (OVCAR-5 ovarian): 1550 nM | TGI (OVCAR-5 ovarian): > 50000 nM | GI50 (DU-145 prostate): 1850 nM | TGI (DU-145 prostate): > 50000 nM | GI50 (CAKI-1 renal): 1100 nM | TGI (CAKI-1 renal): 3520 nM | GI50 (HCC-2998 colon): 1490 nM | TGI (HCC-2998 colon): > 50000 nM | GI50 (SW-620 colon): 1790 nM | TGI (SW-620 colon): > 50000 nM | GI50 (ACHN renal): 1460 nM | TGI (ACHN renal): 4550 nM | GI50 (A498 renal): 636 nM | TGI (A498 renal): 2070 nM | GI50 (CCRF-CEM leukemia): 1620 nM | TGI (CCRF-CEM leukemia): > 50000 nM | GI50 (M14 melanoma): 1630 nM | TGI (M14 melanoma): 9820 nM | GI50 (UACC-62 melanoma): 628 nM | TGI (UACC-62 melanoma): 2410 nM | GI50 (SK-OV-3 ovarian): 1370 nM | TGI (SK-OV-3 ovarian): 4700 nM | GI50 (SF-268 CNS): 1580 nM | TGI (SF-268 CNS): > 50000 nM | GI50 (PC-3 prostate): 1490 nM | TGI (PC-3 prostate): > 50000 nM | GI50 (SK-MEL-28 melanoma): 1410 nM | TGI (SK-MEL-28 melanoma): 19100 nM | GI50 (NCI-H226 lung): 1510 nM | TGI (NCI-H226 lung): 10100 nM | GI50 (NCI-H522 lung): 923 nM | TGI (NCI-H522 lung): > 50000 nM | GI50 (OVCAR-4 ovarian): 1370 nM | TGI (OVCAR-4 ovarian): > 50000 nM | GI50 (SK-MEL-5 melanoma): 694 nM | TGI (SK-MEL-5 melanoma): 1670 nM | GI50 (K-562 leukemia): 1370 nM | TGI (K-562 leukemia): > 50000 nM | GI50 (HT29 colon): 13800 nM | TGI (HT29 colon): > 50000 nM | GI50 (MDA-MB-435): 1430 nM | TGI (MDA-MB-435): 6510 nM | GI50 (IGROV1 ovarian): 1810 nM | TGI (IGROV1 ovarian): > 50000 nM | GI50 (SN12C renal): 1090 nM | TGI (SN12C renal): 4630 nM | GI50 (SR leukemia): 1920 nM | TGI (SR leukemia): > 50000 nM | GI50 (SNB-19 CNS): 1650 nM | TGI (SNB-19 CNS): > 50000 nM
